# Measured values taken from US12171229B2, “Heteroaryl-triazole and heteroaryl-tetrazole compounds as pesticides” (BAYER AKTIENGESELLSCHAFT, priority 2018, dated 2024).
# Assays:
# Format in all cases: in vivo
# [1] = tested on: Aedes aegypti strain MONHEIM; assay: Aedes aegypti test (AEDSAE surface treatment & contact assay); conditions: 24 hours after contact, read-out: efficacy (mortality); for mortality at 4 mg/m2: surface concentration 4 mg/m^2, exposure 30 minutes; for mortality at 20 mg/m2: surface concentration 20 mg/m^2, exposure 30 minutes
# Procedure, shortened: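 Compound dissolved in acetone (2 mg/ml) with 2000 ppm rapeseed oil methyl ester, applied to glazed tile and dried; adult strain MONHEIM mosquitoes exposed 30 minutes. Percent mortality scored 24 hours after contact.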
# [2] = tested on: Anopheles funestus strain FUMOZ-R; assay: Anopheles funestus test (ANPHFU surface treatment & contact assay); conditions: 24 hours after contact, read-out: efficacy (mortality); for mortality at 20 mg/m2: surface concentration 20 mg/m^2, exposure 30 minutes
# Procedure, shortened: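 Compound dissolved in acetone (2 mg/ml) with 2000 ppm rapeseed oil methyl ester and applied to a glazed tile. After acetone evaporation, adult FUMOZ-R mosquitoes were exposed to the dried surface for 30 min. Percent mortality was scored 24 h after contact.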
# Myzus persicae = Myzus persicae oral test; conditions: 120 h, 4 ppm, after 5 days
# Procedure, shortened: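 Aphid mortality (%) was recorded 5 days after a mixed Myzus persicae population began sucking, through parafilm, on compound solutions (acetone stock diluted with water) combined with sugar-supplemented IPL41 medium.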
# [3] = tested on: Musca domestica strain WHO-N; assay: Musca domestica test (MUSCDO surface treatment & contact assay); conditions: 24 hours after contact, read-out: efficacy (mortality); for mortality at 4 mg/m2: surface concentration 4 mg/m^2, exposure 30 minutes; for mortality at 20 mg/m2: surface concentration 20 mg/m^2, exposure 30 minutes
# Procedure, shortened: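 Adult WHO-N flies exposed for 30 minutes on a glazed tile coated with compound dissolved in acetone (2 mg/ml) with 2000 ppm rapeseed oil methyl ester, acetone evaporated. Percent mortality read 24 hours after contact.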
# Nezara viridula = Nezara viridula spray test; conditions: 96 h, after 4 days, larvae on barley plants
# Procedure, shortened: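 Mortality (%) was assessed at day 4, from 0% (no bugs dead) to 100% (all dead). The spray solution was compound diluted to test concentration in water with 1000 ppm emulsifier and applied to barley carrying southern green stink bug larvae.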
# Diabrotica balteata = Diabrotica balteata spray test; conditions: Diabrotica balteata, in Triticum aestivum, 168 h, after 7 days, larvae on wheat seeds, read-out: efficacy (seedlings grown up); for pest or weed control at 80 µg/disc, 250 g/ha: 80 μg/well (=250 g/ha); for pest or weed control at 160 µg/disc, 500 g/ha: 160 μg/well (=500 g/ha)
# Procedure, shortened: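 Scoring at 7 days compares seedling growth with untreated, uninfested controls (100% = equal growth, 0% = none grown). Wheat seedlings germinated 1 day on agar, 5 per well, received a spray of test solution made in 1000 ppm emulsifier water. Each unit then received 10–20 beetle larvae.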
# Ctenocephalides felis = Ctenocephalides felis in-vitro contact test, adult cat flea; conditions: 5 μg/cm^2 (=500 g/ha), after 48 hours, adult cat fleas, read-out: efficacy (fleas dead or moribund)
# Procedure, shortened: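 Compound in acetone coated onto inner walls of glass tubes, e.g. 900 ppm giving 5 μg/cm². After drying, 5–10 adult C. felis added per tube and held at room temperature. At 48 h, fleas unable to escape a 45–50 °C heating plate within 5 min scored dead/moribund, giving % efficacy.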
# Boophilus microplus = Boophilus microplus injection test; conditions: Rhipicephalus microplus, 168 h; 20 μg/animal injected into the abdomen; adult engorged female ticks; egg deposition after 7 days; read-out: efficacy (infertile eggs)
# Procedure, shortened: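 Efficacy, from 0% (all eggs fertile) to 100% (all infertile), was scored on eggs laid by five engorged adult females. Each female was injected intra-abdominally with 1 μl of compound solution in DMSO. Fertile egg laying was checked at 7 days, with uncertain eggs kept until hatching at about 42 days.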
SMILES,mortality at 4 mg/m2 [1] [%],mortality at 20 mg/m2 [1] [%],"mortality at 4 mg/m2 ([2]; surface concentration 4 mg/m^2, exposure 30 minutes) [%]",mortality at 20 mg/m2 [2] [%],mortality at 4 ppm (Myzus persicae) [%],mortality at 4 mg/m2 [3] [%],mortality at 20 mg/m2 [3] [%],mortality at 100 g/ha (Nezara viridula) [%],mortality at 500 g/ha (Nezara viridula) [%],"pest or weed control at 80 µg/disc, 250 g/ha (Diabrotica balteata) [%]","pest or weed control at 160 µg/disc, 500 g/ha (Diabrotica balteata) [%]",pest or weed control at 5 µg/cm2 (Ctenocephalides felis) [%],pest or weed control at 0.02 mg (Boophilus microplus) [%]
C[C@H](NC(=O)c1cc(F)cc(C#N)c1)c1ncnn1-c1ccc(C#N)cn1 [Example I-018],90 to 100,90 to 100,85 to 100,90 to 100,90,90 to 100,90 to 100,100,100,100,100,100,100
Cc1nc([C@H](C)NC(=O)c2cc(Cl)cc(C(F)(F)F)c2)n(-c2ccc(C#N)cn2)n1 [Example I-049],90 to 100,90 to 100,–,90 to 100,100,90 to 100,90 to 100,100,100,80,100,100,100
